Experimental data as given in ChEMBL document CHEMBL1139671, “Nuphar alkaloids with immediately apoptosis-inducing activity from Nuphar pumilum and their structural requirements for the activity” (2006).
The source made the active and inactive calls. The rule behind the calls is not given here.

Columns and labels:
HT-1080 [1] = test: Cytotoxicity against HT1080 cells at 1.0 uM after 72 hrs; assay type: functional; settings: Homo sapiens, HT-1080, 72 h
HT-1080 [2] = test: Cytotoxicity against HT1080 cells at 10 uM after 72 hrs; assay type: functional; settings: Homo sapiens, HT-1080, 72 h
U-937 [3] = test: Cytotoxicity against U937 cells at 10 uM after 72 hrs; assay type: functional; settings: Homo sapiens, U-937, 72 h
B16-F10 [4] = test: Cytotoxicity against B16F10 cells at 0.1 uM after 72 hrs; assay type: functional; settings: Mus musculus, B16-F10, 72 h
HT-1080 [5] = test: Cytotoxicity against HT1080 cells at 0.1 uM after 72 hrs; assay type: functional; settings: Homo sapiens, HT-1080, 72 h
B16-F10 [6] = test: Cytotoxicity against B16F10 cells at 1.0 uM after 72 hrs; assay type: functional; settings: Mus musculus, B16-F10, 72 h
U-937 [7] = test: Cytotoxicity against U937 cells at 1.0 uM after 72 hrs; assay type: functional; settings: Homo sapiens, U-937, 72 h
B16-F10 [8] = test: Cytotoxicity against B16F10 cells at 10 uM after 72 hrs; assay type: functional; settings: Mus musculus, B16-F10, 72 h
U-937 [9] = test: Cytotoxicity against U937 cells at 10 uM after 48 hrs; assay type: functional; settings: Homo sapiens, U-937, 48 h
HT-1080 [10] = test: Cytotoxicity against HT1080 cells at 1.0 uM after 24 hrs; assay type: functional; settings: Homo sapiens, HT-1080, 24 h
HT-1080 [11] = test: Cytotoxicity against HT1080 cells at 10 uM after 24 hrs; assay type: functional; settings: Homo sapiens, HT-1080, 24 h
HT-1080 [12] = test: Cytotoxicity against HT1080 cells at 0.1 uM after 24 hrs; assay type: functional; settings: Homo sapiens, HT-1080, 24 h
HT-1080 [13] = test: Cytotoxicity against HT1080 cells at 1.0 uM after 48 hrs; assay type: functional; settings: Homo sapiens, HT-1080, 48 h
HT-1080 [14] = test: Cytotoxicity against HT1080 cells at 0.1 uM after 48 hrs; assay type: functional; settings: Homo sapiens, HT-1080, 48 h
U-937 [15] = test: Induction of apoptosis in U937 cells by DNA fragmentation assay; assay type: functional, cell-based; settings: Homo sapiens
U-937 [16] = test: Cytotoxicity against U937 cells at 1.0 uM after 48 hrs; assay type: functional; settings: Homo sapiens, U-937, 48 h
U-937 [17] = test: Cytotoxicity against U937 cells at 10 uM after 24 hrs; assay type: functional; settings: Homo sapiens, U-937, 24 h
B16-F10 [18] = test: Cytotoxicity against B16F10 cells at 0.1 uM after 48 hrs; assay type: functional; settings: Mus musculus, B16-F10, 48 h
B16-F10 [19] = test: Cytotoxicity against B16F10 cells at 10 uM after 24 hrs; assay type: functional; settings: Mus musculus, B16-F10, 24 h
U-937 [20] = test: Cytotoxicity against U937 cells at 1.0 uM after 24 hrs; assay type: functional; settings: Homo sapiens, U-937, 24 h
B16-F10 [21] = test: Cytotoxicity against B16F10 cells at 1.0 uM after 48 hrs; assay type: functional; settings: Mus musculus, B16-F10, 48 h
B16-F10 [22] = test: Cytotoxicity against B16F10 cells at 10 uM after 48 hrs; assay type: functional; settings: Mus musculus, B16-F10, 48 h
HT-1080 [23] = test: Cytotoxicity against HT1080 cells at 10 uM after 48 hrs; assay type: functional; settings: Homo sapiens, HT-1080, 48 h
B16-F10 [24] = test: Cytotoxicity against B16F10 cells at 1.0 uM after 24 hrs; assay type: functional; settings: Mus musculus, B16-F10, 24 h

Compound	inhibition at 1 µM (HT-1080 [1]) [%]	inhibition at 10 µM (HT-1080 [2]) [%]	inhibition at 10 µM (U-937 [3]) [%]	inhibition at 0.1 µM (B16-F10 [4]) [%]	inhibition at 0.1 µM (HT-1080 [5]) [%]	inhibition at 1 µM (B16-F10 [6]) [%]	inhibition at 1 µM (U-937 [7]) [%]	inhibition at 10 µM (B16-F10 [8]) [%]	inhibition at 10 µM (U-937 [9]) [%]	inhibition at 10 µM (HT-1080 [11]) [%]	inhibition at 1 µM (HT-1080 [13]) [%]	inhibition at 0.1 µM (HT-1080 [14]) [%]	inhibition at 1 µM (U-937 [16]) [%]	inhibition at 10 µM (U-937 [17]) [%]	inhibition at 0.1 µM (B16-F10 [18]) [%]	inhibition at 10 µM (B16-F10 [19]) [%]	inhibition at 1 µM (U-937 [20]) [%]	inhibition at 1 µM (B16-F10 [21]) [%]	inhibition at 10 µM (B16-F10 [22]) [%]	inhibition at 10 µM (HT-1080 [23]) [%]	further results
C[C@@H]1CC[C@@H](c2ccoc2)N2C[C@@]3(CC[C@@H]12)C[S+]([O-])[C@]1(CC[C@H]2[C@H](C)CC[C@@H](c4ccoc4)N2C1)C3 (some centres not stated)	-8.1	-4.4	6.3	10.4	-6.1	3.2	4.7	10.8													
C[C@@H]1CC[C@@H](c2ccoc2)N2C[C@@]3(CC[C@@H]12)CS[C@@]1(CC[C@H]2[C@H](C)CC[C@@H](c4ccoc4)N2[C@@H]1O)C3	15.7	99.2	94.3	11.1	5.4	20.8	-1	98.7	92.5	96.1	8.3	1.6	1.3	83.2	10.3	88.6	3.6	27.3	97.3	97.5	inhibition at 1 µM (HT-1080 [10]): 14%; inhibition at 0.1 µM (HT-1080 [12]): 1.8%; Activity (U-937 [15]): Active
C[C@@H]1CC[C@@H](c2ccoc2)N2[C@H]1CC[C@@]1(CS[C@@]3(CC[C@H]4[C@H](C)CC[C@@H](c5ccoc5)N4[C@@H]3O)C1)[C@H]2O	-0.9	75.3	81.6	-3.5	0.1	-6	1.3	54.8	80	19.3	0.5	9	2.3	54.7	-8	16.6	5.3	-15	51.8	75	
C[C@@H]1CC[C@@H](c2ccoc2)N2C[C@]3(CC[C@@H]12)C[S+]([O-])[C@]1(CC[C@H]2[C@H](C)CC[C@@H](c4ccoc4)N2C1)C3 (some centres not stated)	-1.8	6.8	10	-3.7	-0.4	7.7	5.8	9.1													
C[C@@H]1CC[C@@H](c2ccoc2)N2C[C@@]3(CC[C@@H]12)C[C@]1(CC[C@H]2[C@H](C)CC[C@@H](c4ccoc4)N2[C@@H]1O)CS3 [6'-HYDROXYTHIONUPHLUTINE B]	-7.3	-9.1	0.5	1.7	-9.8	-1.6	0.1	-4.8													
C[C@@H]1CC[C@@H](c2ccoc2)N2C[C@@]3(CC[C@@H]12)CS[C@]1(CC[C@H]2[C@H](C)CC[C@@H](c4ccoc4)N2[C@@H]1O)C3 [6-HYDROXYTHIONUPHLUTINE B]	63.5	98.7	94.1	0.9	1	69.3	85.3	99.1	91.3	95.9	53.3	8.6	89	80	0.3	91.5	74.6	65	98.2	98	inhibition at 1 µM (HT-1080 [10]): 42%; inhibition at 0.1 µM (HT-1080 [12]): 6.3%; inhibition at 1 µM (B16-F10 [24]): -22.9%
C[C@@H]1CC[C@H]2[C@H](C)CC[C@@H](c3ccoc3)N2C1 [(-)-7-EPI-DEOXYNUPHARIDINE]	-6.6	-10.1	8	-1.5		-9.8	6.4	-7.9													
